Test results as given in US20250115654A1, “PHARMACEUTICAL COMPOSITION OF GLP-1 RECEPTOR AND GIP RECEPTOR DUAL AGONIST, AND USE THEREOF” (FUJIAN SHENGDI PHARMACEUTICAL CO., LTD., priority 2021, published 2025).
Numbered stars: 1 amine (or outer) side, 2 acyl side, 3 side chain; on linkers, the order of the positions; unused ones are H or OH. Square brackets hold non-standard residues; d marks the D form. Side chains are listed from the residue outwards. Peptide text beside a SMILES is read from it. * marks the point of attachment. C20 diacid = O=C(O)CCCCCCCCCCCCCCCCCCC(=O)*; γGlu = O=C(O)[C@H](CCC(=O)[*:2])N[*:1]; AEEA = NCCOCCOCC(=O)O; Aib = CC(C)(N)C(=O)O

What was measured:
[1] = Stability of compounds in human plasma (LC-MS); assay type: in vitro ADME
Experimental: 5 μL of each of samples at concentrations of 20 ng/mL, 50 ng/mL, 100 ng/mL, 200 ng/mL, 500 ng/mL, 1000 ng/mL, 2000 ng/mL, 5000 ng/mL, and 10000 ng/mL was added to 45 L of human plasma. The content of the compounds in the samples was determined by the LC-MS method and a standard curve was formed. 5 μL of a 1 mg/mL polypeptide solution was added to 45 μL of human plasma. […] With the content at 0 min as the standard (100%), the relative content of the retained compounds in the samples at other time points was calculated.

[2] = Pharmacokinetics in Balb/c mice after a single intravenous injection; assay type: in vivo; settings: male, mouse, mice plasma, 30 nmol/kg
Experimental: (§1) Male Balb/c mice weighing 18-30 g and aged 7-9 weeks were purchased from Shanghai Jiesijie Laboratory Animal Co., Ltd. After compound 7 #was prepared in a buffer containing 20 mM citric acid (pH=7.0), compound 7 #was intravenous injected into mice at a dose of 30 nmol/kg body weight via tail vein, and 0.2 mL of blood was separately collected at time points of 0 h, 0.083 h, 0.25 h, 0.5 h, 1 h, 2 h, 4 h, 6 h, 8 h, 24 h, and 32 h. The collected blood of mice was centrifuged at 6000 rpm for 6 min at 4° C. to separate the plasma. The content of compound 7 #in plasma of mice was assayed by the experimental procedures of Example 3.3.

[3] = target: T1, human GIPR (Homo sapiens, UniProt P48546); assay: Agonist activity against GIPR, cAMP HTRF in CHO-K1 cells transiently transfected with hGIP receptor; assay type: cell-based
T1 construct: expressed in transfected cells; host or cells: wild-type CHO-K1, transient transfection with hGIP receptor plasmid (Fugene HD)
T1 sequence (P48546 22-466): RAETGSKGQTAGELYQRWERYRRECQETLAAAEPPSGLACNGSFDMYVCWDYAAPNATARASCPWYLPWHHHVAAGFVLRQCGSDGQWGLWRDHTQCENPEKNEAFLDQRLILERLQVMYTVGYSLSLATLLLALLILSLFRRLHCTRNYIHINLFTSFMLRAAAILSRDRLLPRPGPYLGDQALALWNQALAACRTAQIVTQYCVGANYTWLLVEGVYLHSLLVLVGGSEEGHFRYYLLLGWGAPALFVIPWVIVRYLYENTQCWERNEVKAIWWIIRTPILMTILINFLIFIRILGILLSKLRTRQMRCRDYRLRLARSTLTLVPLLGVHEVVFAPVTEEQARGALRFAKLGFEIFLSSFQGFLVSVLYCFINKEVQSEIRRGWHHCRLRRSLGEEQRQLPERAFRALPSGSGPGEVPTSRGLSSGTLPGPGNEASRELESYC
Experimental: Wild-type CHO-K1 cells were collected, and the cell suspension was adjusted to an appropriate density, seeded in a 6-well plate at 2 mL/well, and placed in an incubator at 37° C. with 5% CO2 for adherence culture overnight.

[4] = Pharmacokinetics in Balb/c mice after a single subcutaneous injection; assay type: in vivo; settings: male, mouse, sc, mice plasma, 30 nmol/kg
Experimental: as §1, with “subcutaneously” for “intravenous”, “left side of abdomen,” for “tail vein,”, “5.2.” for “3.3.”

[5] = test system: diet-induced-obesity mice; assay: Body weight of diet-induced-obesity mice, subcutaneous administration once every 3 days; assay type: in vivo, C57BL/6 mice; settings: for Body weight change (%, mean ± SD): 10 nmol/kg
[6] = test system: normal mice; assay: Blood glucose in normal mice after a single subcutaneous administration and intraperitoneal glucose; assay type: in vivo, C57BL/6 mice; settings: 10 nmol/kg sc; for Blood glucose (mmol/L, mean ± SD): glucose ip 18 h later
Experimental: 18 h later, a glucose solution at a concentration of 0.2 g/mL was intraperitoneally injected. Blood glucose values were measured by collecting blood from the tail of mice at time points of 0 min, 15 min, 30 min, 60 min, and 120 min according to the experimental design. The specific procedures were as follows: the mouse was physically immobilized with the tail exposed, a little part was cut off at the tail end, then the tail was squeezed to bleed, and blood glucose was determined using a Roche active glucometer after the 1st drop of blood was discarded. The area under the blood glucose curve (AUC) was calculated from the results of all time points.

[7] = target: T2, human glucose-dependent insulinotropic polypeptide receptor (GIPR) (human) (UniProt P48546)
T2 sequence: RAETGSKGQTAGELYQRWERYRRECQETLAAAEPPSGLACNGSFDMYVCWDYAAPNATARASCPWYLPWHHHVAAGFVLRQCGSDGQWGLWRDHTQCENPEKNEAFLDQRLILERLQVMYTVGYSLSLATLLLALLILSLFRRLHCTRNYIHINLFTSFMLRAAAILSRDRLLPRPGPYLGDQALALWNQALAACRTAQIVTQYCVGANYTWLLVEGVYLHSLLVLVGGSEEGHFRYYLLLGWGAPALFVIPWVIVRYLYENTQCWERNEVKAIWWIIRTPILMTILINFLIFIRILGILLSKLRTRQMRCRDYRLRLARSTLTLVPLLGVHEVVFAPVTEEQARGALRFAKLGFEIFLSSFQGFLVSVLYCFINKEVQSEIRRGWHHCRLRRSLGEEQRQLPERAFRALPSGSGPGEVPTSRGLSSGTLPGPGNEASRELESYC

[8] = target: human glucagon-like peptide-1 receptor (GLP-1R) (human, UniProt P43220); assay: cell-based or functional assay
[9] = target: T3, human glucose-dependent insulinotropic polypeptide receptor (GIPR) (human, UniProt P48546); assay: cell-based or functional assay
T3 sequence: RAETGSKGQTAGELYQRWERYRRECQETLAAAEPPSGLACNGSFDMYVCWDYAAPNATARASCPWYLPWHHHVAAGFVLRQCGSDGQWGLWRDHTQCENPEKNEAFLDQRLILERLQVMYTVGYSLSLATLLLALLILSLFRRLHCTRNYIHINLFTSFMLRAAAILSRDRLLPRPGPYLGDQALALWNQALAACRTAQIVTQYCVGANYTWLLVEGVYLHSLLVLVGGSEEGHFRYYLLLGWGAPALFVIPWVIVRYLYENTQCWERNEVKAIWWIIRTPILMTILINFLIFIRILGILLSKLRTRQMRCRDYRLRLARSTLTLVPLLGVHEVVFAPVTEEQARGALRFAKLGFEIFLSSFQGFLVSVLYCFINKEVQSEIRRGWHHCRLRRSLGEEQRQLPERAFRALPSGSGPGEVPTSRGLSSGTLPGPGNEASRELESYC

CC[C@H](C)[C@H](NC(=O)[C@H](CCCCN)NC(=O)[C@H](CC(=O)O)NC(=O)[C@H](CCCCNC(=O)COCCOCCNC(=O)COCCOCCNC(=O)CC[C@H](NC(=O)CCCCCCCCCCCCCCCCCCC(=O)O)C(=O)O)NC(=O)[C@H](Cc1ccc(O)cc1)NC(=O)[C@@H](NC(=O)[C@H](CO)NC(=O)[C@H](Cc1ccc(O)cc1)NC(=O)[C@H](CC(=O)O)NC(=O)[C@H](CO)NC(=O)[C@@H](NC(=O)[C@H](Cc1ccccc1)NC(=O)[C@@H](NC(=O)CNC(=O)[C@H](CCC(=O)O)NC(=O)C(C)(C)NC(=O)[C@@H](N)Cc1ccc(O)cc1)[C@@H](C)O)[C@@H](C)O)[C@@H](C)CC)C(=O)N[C@@H](C)C(=O)N[C@@H](C)C(=O)N[C@@H](CCC(N)=O)C(=O)N[C@@H](CCC(=O)O)C(=O)N[C@@H](Cc1ccccc1)C(=O)N[C@H](C(=O)N[C@@H](CC(N)=O)C(=O)N[C@@H](Cc1c[nH]c2ccccc12)C(=O)N[C@@H](CC(C)C)C(=O)N[C@@H](CC(C)C)C(=O)N[C@@H](C)C(=O)NCC(=O)NCC(=O)N1CCC[C@H]1C(=O)N[C@@H](CO)C(=O)N[C@@H](CO)C(=O)NCC(=O)N[C@@H](C)C(=O)N1CCC[C@H]1C(=O)N1CCC[C@H]1C(=O)N1CCC[C@H]1C(=O)N[C@@H](CO)C(N)=O)C(C)C [Compound 7#] (H-Y[Aib]EGTFTSDYSIYK([AEEA-AEEA-γGlu-C20 diacid])DKIAAQEFVNWLLAGGPSSGAPPPS-NH2)
Relative content of compounds retained in plasma (%) ([1]; 0 min (standard 100%)): 100.00% | remaining at 0.5 h, 0.1 mg/mL ([1]; human, 30 min, read-out: Relative content of compounds retained in plasma (%)): 101% | remaining at 1 h, 0.1 mg/mL ([1]; human, 60 min, read-out: Relative content of compounds retained in plasma (%)): 102% | remaining at 2 h, 0.1 mg/mL ([1]; human, 120 min, read-out: Relative content of compounds retained in plasma (%)): 103% | remaining at 4 h, 0.1 mg/mL ([1]; human, 240 min, read-out: Relative content of compounds retained in plasma (%)): > 90% | AUC(0-inf) [2]: 16100 ng·h/mL | half-life [2]: 13 h | EC50 [3]: 0.11 nM | AUC(0-inf) [4]: 14500 ng·h/mL | half-life [4]: 10.1 h | Body weight change (%, mean ± SD) ([5]; Day 1): 0% | Body weight change (%, mean ± SD) ([5]; Day 4): −11.0 ± 1.0% | Body weight change (%, mean ± SD) ([5]; Day 7): −17.6 ± 2.6% | Body weight change (%, mean ± SD) ([5]; Day 10): −22.6 ± 5.9% | Body weight change (%, mean ± SD) ([5]; Day 13): −22.3 ± 6.3% | Body weight change (%, mean ± SD) ([5]; Day 16): −22.7 ± 6.9% | Body weight change (%, mean ± SD) ([5]; Day 19): −25.9 ± 6.2% | Body weight change (%, mean ± SD) ([5]; Day 22): −23.9 ± 5.6% | Body weight change (%, mean ± SD) ([5]; Day 25): −23.9 ± 5.6% | Body weight change (%, mean ± SD) ([5]; Day 28): −25.5 ± 5.3% | body weight-reducing effect on high-fat food-induced-obesity mice ([5]; doses of 3, 10 and 100 nmol/kg): significant body weight-reducing effect | reduction of area under the blood glucose curve compared with placebo [6]: more than 60% | AUC (area under the blood glucose curve) ([6]; 0-120 min): 10.7 ± 1.8 mmol·h/L | Blood glucose (mmol/L, mean ± SD) ([6]; 0 min): 4.4 ± 0.8 mmol/L | Blood glucose (mmol/L, mean ± SD) ([6]; 15 min): 6.7 ± 0.8 mmol/L | Blood glucose (mmol/L, mean ± SD) ([6]; 30 min): 6.2 ± 1.3 mmol/L | Blood glucose (mmol/L, mean ± SD) ([6]; 60 min): 5.7 ± 1.2 mmol/L | Blood glucose (mmol/L, mean ± SD) ([6]; 120 min): 3.8 ± 1.1 mmol/L

LY3298176 (peptide)
Activity against human GIPR (EC50 nM); cAMP, HTRF [7]: 0.031 nM

H-Y[Aib]EGTFTSDYSIYK([AEEA-AEEA-γGlu-C20‑OH])DKIAAQEFVNWLLAGGPSSGAPPPS-NH2 [compound 7# H-YAibEGTFTSDYSIYK(OEG-OEG-yGlu-C20-OH)DKIAAQEFVNWLLAGGPSSGAPPPS-NH2]
Activity against human GLP-1R (EC50 nM); cAMP, HTRF [8]: 0.021 nM | Activity against human GIPR (EC50 nM); cAMP, HTRF [9]: 0.11 nM
